Measured values from patent US11564913B2, “Compositions and methods for treating cancer” (Children's Hospital Medical Center, priority 2019, dated 2023).

Legend:
recombinant Vav3 = target: T1, recombinant Vav3 (Homo sapiens, UniProt Q9UKW4); assay: Microscale thermophoresis (MST) binding; details: one molecule of IODVA1 binds, read-out: binding affinity (Kd)
T1 construct: His6; made in house; host or cells: E. coli BL21 (DE3) or T7 Express, co-expressed with groEL-groES
Procedure: FIG. 14: IODVA1 targets Vav3 in vitro and in vivo. (A) Ba/F3 cells expressing empty vector Mieg3 or p190-BCR-ABL1 were treated with vehicle control or IODVA1 (IO1, 3 μM) for 30 min and incubated with GST-Rac and glutathione beads. Beads were washed and the protein complexes were separated on SDS-PAGE and immunoblotted for pVav3. Input Vav3 was used as control. (B) Binding affinity (Kd) between IODVA1 and Vav3 (green), LARG (brown), and RacGDP (blue). […] Error bars=SD; N=3. (C) Quantification of the average number of colonies made by bone marrow wild-type (black) and Vav3^−/− (lilac) p190-BCR-ABL1 leukemic cells treated with vehicle control or IODVA1 (IO1, 1 and 3 μM) (* p≤0.05; ** p≤0.01; *** p≤0.001; ns, not significant). (D) Representative histogram data of the cell cycle analysis of wild-type (black and grey bars) and Vav3^−/− (dark and light lilac) bone marrow cells expressing p190-BCR-ABL and treated with vehicle control or IODVA1 (IO1, 3 μM) for 20 h. (E) Quantification by densitometry of the pVav3 band from FIG. 14A. […]
To test this hypothesis, we measured its binding affinity (Kd) to recombinant Vav3 and Rac1 using microscale thermophoresis (MST); the catalytic domain (DH/PH) of the RhoGEF LARG served as negative control. […] Second, like Vav3, LARG contains a DH/PH domain responsible for the exchange activity such that any non-specific binding to this domain should be detected. […]

[1] = test system: p210-BCR-ABL(T315I) leukemia; assay: TKI-resistant p210-BCR-ABL(T315I) mouse model; assay type: in vivo, mice
Text: LDBM cells were transduced with TKI-resistant p210-BCR-ABL1(T315I) (gatekeeper mutant) and transplanted into recipient mice as in FIG. 10. […] (B) Flow cytometric analysis of leukemic progenitor (EGFP^+) B-cells in peripheral blood (PB) at the indicated week.
To further test this idea, we evaluated the ability of IODVA1 to increase the survival of mice harboring p210-BCR-ABL(T315I).
C57Bl/6 mice were commercially obtained (The Jackson Laboratory and Harlan Laboratories) and used as donors and/or recipients of transduction/transplantation models under a protocol approved by The Cincinnati Children's Hospital Medical Center Institutional Animal Care and Use Committee.
After a single wash in PBS, cells were stained with anti-B220 APC-Cy7 antibody. Stained cells were washed once and analyzed by flow cytometry.

[2] = test system: phosphorylated Vav3 (pY173) in MDA-MB-231 cells; assay: Immunoblot of phosphorylated Vav3 (pY173); assay type: cell-based, human; details: 3 μM, 15 min
Procedure: FIG. 16: IODVA1 decreases levels of pVav3 in in vitro and in vivo models of triple negative breast cancer. (A) Immunoblot and quantification of Vav3 protein in lysates of MDA-MB-231 triple negative breast cancer cells stably expressing scrambled or Vav3-targeting shRNAs. Viability of the MDA-MB-231 cells stably expressing shVav3 in the presence of IODVA1 (0-1 μM). Cells were grown in the presence of IODVA1 and counted by trypan blue exclusion at the indicated time points. (B) MDA-MB-231 cells were incubated with IODVA1 (3 μM) for 15 min and the levels of phosphorylated Vav3 (pY173) were assessed by immunoblotting. (C) Immunohistochemical staining of phosphorylated Vav3 in tissue derived from MDA-MB-231 xenografts treated with vehicle control or IODVA1.
Next, we tested if IODVA1 is effective in another model of Vav3-dependent cancer. We chose MDA-MB-231 triple negative breast cancer cells because these cells express high endogenous levels of Vav3 (Chen, 2015) and because Vav3 is an acknowledged target in breast cancer (Chen, 2015; Lee, 2008; Aguilar, 2014; Citterio, 2012; Lorenzo-Martin. 2019). […] Second, we incubated MDA-MB-231 cells with IODVA1 (3 μM) for 15 min and analyzed the levels of phosphorylated Vav3 (pY173) by immunoblotting. […]

T1 sequence (Q9UKW4 whole entry, species assumed): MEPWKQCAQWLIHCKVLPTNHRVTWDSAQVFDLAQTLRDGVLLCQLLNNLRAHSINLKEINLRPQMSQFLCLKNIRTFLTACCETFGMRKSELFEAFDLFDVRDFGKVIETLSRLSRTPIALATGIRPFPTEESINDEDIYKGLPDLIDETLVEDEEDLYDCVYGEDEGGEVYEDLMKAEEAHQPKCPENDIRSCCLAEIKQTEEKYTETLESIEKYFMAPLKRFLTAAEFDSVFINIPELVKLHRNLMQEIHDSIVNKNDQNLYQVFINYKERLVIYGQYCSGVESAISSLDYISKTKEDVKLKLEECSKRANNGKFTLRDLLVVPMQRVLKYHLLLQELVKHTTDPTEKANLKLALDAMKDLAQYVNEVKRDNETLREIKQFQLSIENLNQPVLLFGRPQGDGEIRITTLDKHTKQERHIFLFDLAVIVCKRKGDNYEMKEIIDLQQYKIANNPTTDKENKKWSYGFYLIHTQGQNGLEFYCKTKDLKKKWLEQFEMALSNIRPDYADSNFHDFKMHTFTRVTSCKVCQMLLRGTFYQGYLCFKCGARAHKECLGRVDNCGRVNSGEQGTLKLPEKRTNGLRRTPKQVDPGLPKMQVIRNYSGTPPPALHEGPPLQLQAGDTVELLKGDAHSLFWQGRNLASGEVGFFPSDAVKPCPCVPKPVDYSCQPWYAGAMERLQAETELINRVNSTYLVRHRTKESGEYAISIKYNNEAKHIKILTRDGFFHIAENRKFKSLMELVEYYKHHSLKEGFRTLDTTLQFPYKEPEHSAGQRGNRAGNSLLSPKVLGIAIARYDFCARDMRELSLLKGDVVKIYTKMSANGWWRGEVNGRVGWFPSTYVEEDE

## OC1(c2ccccn2)N=C(Nc2nc3ccccc3[nH]2)N=C1c1ccccn1 (stereo not shown) [IODVA1, (Z)-2-((1H-benzo[d]imidazol-2-yl)imino)-4,5-di(pyridin-2-yl)-2,5-dihydro-1H-imidazol-5-ol]
Recombinant Vav3
  Kd: 512 nM
[1]; 37 days post last treatment
  treated mice surviving until day 65: 80%
[1]; 52 days post last treatment
  treated mice surviving till day 80: 60%
[1]; week 5
  decrease in leukemic progenitor levels (EGFP+/B220+) in peripheral blood: 84%
[1]; week 10
  decrease in leukemic progenitor levels (EGFP+/B220+) in peripheral blood: 91%
[1]; week two
  decrease in leukemic progenitor levels (EGFP+/B220+) in peripheral blood: 24%
[2]
  pY173 signal: significant decrease
